{
  "source": "paper PMC10065276",
  "about": "“Enhanced therapeutic window for antimicrobial Pept-ins by investigating their structure-activity relationship” (PLOS ONE, 2023)",
  "note": "Residues, ends and D or L forms follow the SMILES beside them.",
  "data": [
    {"system": "E. coli BL21", "conditions": "BL21, 17 h", "summary_of_the_method": "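EUCAST broth microdilution in Mueller-Hinton medium; end-exponential culture diluted to 0.005 McF (~1.5x10^6 CFU/mL) before 1:1 mixing with two-fold peptide dilutions (0.75 to 100 μg/mL), triplicates.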", "units": {"BL21 MIC": "mg/L", "BL21 MIC, SS bond": "mg/L", "BL21 MIC, no SS bond": "mg/L", "MIC against E. coli BL21": "mg/L"}, "values": [
      {"compound": "CC(C)C[C@H](NC(=O)CNC(=O)[C@H](CCCNC(=N)N)NC(=O)[C@@H]1CCCN1C(=O)[C@H](CCCNC(=N)N)NC(=O)[C@H](CCCNC(=N)N)NC(=O)[C@H](Cc1c[nH]cn1)NC(=O)[C@H](Cc1c[nH]cn1)NC(=O)[C@H](C)NC(=O)[C@H](CC(C)C)NC(=O)CNC(=O)[C@H](CC(C)C)NC(=O)CNC(=O)[C@@H](N)CCCNC(=N)N)C(=O)NCC(=O)N[C@@H](CC(C)C)C(=O)N[C@@H](C)C(=O)N[C@@H](Cc1c[nH]cn1)C(=O)N[C@@H](Cc1c[nH]cn1)C(=O)N[C@@H](CCCNC(=N)N)C(=O)N[C@@H](CCCNC(=N)N)C(=O)O", "note": "[P2_zero_tango_3] (H-RGLGLAHHRRPRGLGLAHHRR-OH)", "BL21 MIC": ">100.00"},
      {"compound": "CC[C@H](C)[C@H](NC(=O)CNC(=O)[C@H](CC(C)C)NC(=O)[C@@H](N)CCCNC(=N)N)C(=O)N[C@@H](C)C(=O)N[C@H](C(=O)N[C@@H](C)C(=O)N[C@@H](CC(C)C)C(=O)N[C@@H](CCCNC(=N)N)C(=O)N[C@@H](CCCNC(=N)N)C(=O)N1CCC[C@H]1C(=O)N[C@@H](CCCNC(=N)N)C(=O)N[C@@H](CC(C)C)C(=O)NCC(=O)N[C@@H](C)C(=O)N[C@@H](C)C(=O)N[C@H](C(=O)N[C@@H](C)C(=O)N[C@@H](CC(C)C)C(=O)N[C@@H](CCCNC(=N)N)C(=O)N[C@@H](CCCNC(=N)N)C(=O)O)C(C)C)C(C)C", "note": "[Peptide P33-I15A] (H-RLGIAVALRRPRLGAAVALRR-OH)", "BL21 MIC": 12.50},
      {"compound": "CC(C)C[C@H](NC(=O)CNC(=O)[C@H](CCCNC(=N)N)NC(=O)[C@@H]1CCCN1C(=O)[C@H](CCCNC(=N)N)NC(=O)[C@H](CCCNC(=N)N)NC(=O)[C@@H](NC(=O)[C@H](CC(C)C)NC(=O)[C@H](C)NC(=O)[C@H](CC(C)C)NC(=O)CNC(=O)[C@H](CC(C)C)NC(=O)CNC(=O)[C@@H](N)CCCNC(=N)N)C(C)C)C(=O)NCC(=O)N[C@@H](CC(C)C)C(=O)N[C@@H](Cc1ccccc1)C(=O)N[C@@H](CC(C)C)C(=O)N[C@H](C(=O)N[C@@H](CCCNC(=N)N)C(=O)N[C@@H](CCCNC(=N)N)C(=O)O)C(C)C", "note": "[Peptide P2_A5F] (H-RGLGLALVRRPRGLGLFLVRR-OH)", "BL21 MIC": 3.13},
      {"compound": "CC(C)C[C@H](NC(=O)CNC(=O)[C@H](CCCNC(=N)N)NC(=O)[C@@H]1CCCN1C(=O)[C@H](CCCNC(=N)N)NC(=O)[C@H](CCCNC(=N)N)NC(=O)[C@@H](NC(=O)[C@H](CC(C)C)NC(=O)[C@H](C)NC(=O)[C@H](CC(C)C)NC(=O)CNC(=O)[C@H](CC(C)C)NC(=O)CNC(=O)[C@@H](N)CCCNC(=N)N)C(C)C)C(=O)NCC(=O)N[C@@H](CC(C)C)C(=O)N[C@@H](C)C(=O)N[C@@H](C)C(=O)N[C@H](C(=O)N[C@@H](CCCNC(=N)N)C(=O)N[C@@H](CCCNC(=N)N)C(=O)O)C(C)C", "note": "[Peptide P2_L18A] (H-RGLGLALVRRPRGLGLAAVRR-OH)", "BL21 MIC": 50.00},
      {"compound": "CC(C)C[C@H](NC(=O)CNC(=O)[C@H](CCCNC(=N)N)NC(=O)[C@@H]1CSSC[C@H](NC(=O)[C@@H](NC(=O)[C@H](CC(C)C)NC(=O)[C@H](C)NC(=O)[C@H](CC(C)C)NC(=O)CNC(=O)[C@H](CC(C)C)NC(=O)CNC(=O)[C@@H](N)CCCNC(=N)N)C(C)C)C(=O)N[C@@H](CCCNC(=N)N)C(=O)N[C@@H](CCCNC(=N)N)C(=O)N2CCC[C@H]2C(=O)N1)C(=O)NCC(=O)N[C@@H](CC(C)C)C(=O)N[C@@H](C)C(=O)N[C@@H](CC(C)C)C(=O)N[C@H](C(=O)N[C@@H](CCCNC(=N)N)C(=O)N[C@@H](CCCNC(=N)N)C(=O)O)C(C)C", "note": "[Peptide P2_var9]", "BL21 MIC, SS bond": 6.25, "BL21 MIC, no SS bond": 6.25},
      {"compound": "CC(C)C[C@H](NC(=O)CNC(=O)[C@H](CCCNC(=N)N)NC(=O)[C@@H](NC(=O)CNC(=O)[C@H](C)NC(=O)[C@H](CCCNC(=N)N)NC(=O)[C@@H](NC(=O)[C@H](CC(C)C)NC(=O)[C@H](C)NC(=O)[C@H](CC(C)C)NC(=O)CNC(=O)[C@H](CC(C)C)NC(=O)CNC(=O)[C@@H](N)CCCNC(=N)N)C(C)C)C(C)C)C(=O)NCC(=O)N[C@@H](CC(C)C)C(=O)N[C@@H](C)C(=O)N[C@@H](CC(C)C)C(=O)N[C@H](C(=O)N[C@@H](C)C(=O)N[C@@H](CCCNC(=N)N)C(=O)O)C(C)C", "note": "[Peptide P2_4R_GV] (H-RGLGLALVRAGVRGLGLALVAR-OH)", "BL21 MIC": 6.25, "MIC against E. coli BL21": 6.3},
      {"compound": "CC[C@H](C)[C@H](NC(=O)CNC(=O)[C@H](CC(C)C)NC(=O)[C@H](CCCNC(=N)N)NC(=O)[C@@H]1CCCN1C(=O)[C@H](CCCNC(=N)N)NC(=O)[C@H](CCCNC(=N)N)NC(=O)[C@H](CC(C)C)NC(=O)[C@H](C)NC(=O)[C@@H](NC(=O)[C@H](C)NC(=O)[C@@H](NC(=O)CNC(=O)[C@H](CC(C)C)NC(=O)[C@@H](N)CCCNC(=N)N)[C@@H](C)CC)C(C)C)C(=O)N[C@@H](C)C(=O)N[C@H](C(=O)N[C@@H](C)C(=O)N[C@@H](CC(C)C)C(=O)N[C@@H](C)C(=O)N[C@@H](C)C(=O)O)C(C)C", "note": "[Peptide P33_4R_6] (H-RLGIAVALRRPRLGIAVALAA-OH)", "BL21 MIC": 12.50},
      {"compound": "CC[C@H](C)[C@H](NC(=O)CNC(=O)[C@H](CC(C)C)NC(=O)[C@@H](N)CCCNC(=N)N)C(=O)N[C@@H](C)C(=O)N[C@H](C(=O)N[C@@H](C)C(=O)N[C@@H](CC(C)C)C(=O)N[C@@H](CCCNC(=N)N)C(=O)N[C@@H](CCCNC(=N)N)C(=O)N1CCC[C@H]1C(=O)N[C@@H](CCCNC(=N)N)C(=O)N[C@@H](CC(C)C)C(=O)N[C@@H](C)C(=O)N[C@H](C(=O)N[C@@H](C)C(=O)N[C@H](C(=O)N[C@@H](C)C(=O)N[C@@H](CC(C)C)C(=O)N[C@@H](CCCNC(=N)N)C(=O)N[C@@H](CCCNC(=N)N)C(=O)O)C(C)C)[C@@H](C)CC)C(C)C", "note": "[Peptide P33-G14A] (H-RLGIAVALRRPRLAIAVALRR-OH)", "BL21 MIC": 6.25},
      {"compound": "CC(C)C[C@H](NC(=O)CNC(=O)[C@H](CCCNC(=N)N)NC(=O)[C@@H]1CSSC[C@H](NC(=O)[C@@H](NC(=O)[C@H](CC(C)C)NC(=O)[C@H](C)NC(=O)[C@H](CC(C)C)NC(=O)CNC(=O)[C@H](CC(C)C)NC(=O)CNC(=O)[C@@H](N)CCCNC(=N)N)C(C)C)C(=O)N[C@@H](CCCNC(=N)N)C(=O)N[C@@H](CCCNC(=N)N)C(=O)N2CCC[C@@H]2C(=O)NCC(=O)N1)C(=O)NCC(=O)N[C@@H](CC(C)C)C(=O)N[C@@H](C)C(=O)N[C@@H](CC(C)C)C(=O)N[C@H](C(=O)N[C@@H](CCCNC(=N)N)C(=O)N[C@@H](CCCNC(=N)N)C(=O)O)C(C)C", "note": "[Peptide P2_H12_pG]", "BL21 MIC, SS bond": 3.13, "BL21 MIC, no SS bond": 6.25},
      {"compound": "CC[C@H](C)[C@H](NC(=O)[C@H](C)NC(=O)[C@H](CCCNC(=N)N)NC(=O)[C@@H](NC(=O)[C@H](CC(C)C)NC(=O)[C@H](C)NC(=O)[C@H](CC(C)C)NC(=O)CNC(=O)[C@H](CC(C)C)NC(=O)CNC(=O)[C@@H](N)CCCNC(=N)N)C(C)C)C(=O)N[C@@H](CCCNC(=N)N)C(=O)NCC(=O)N[C@@H](CC(C)C)C(=O)NCC(=O)N[C@@H](CC(C)C)C(=O)N[C@@H](C)C(=O)N[C@@H](CC(C)C)C(=O)N[C@H](C(=O)N[C@@H](C)C(=O)N[C@@H](CCCNC(=N)N)C(=O)O)C(C)C", "note": "[Peptide P2_4R_I] (H-RGLGLALVRAIRGLGLALVAR-OH)", "BL21 MIC": 12.50}
    ]}
  ]
}
